Conditions: mammal plasma collected 0.5 hours after being drenched with strengthening body resistance and dissipating blood stasis botanical (FZHY); solid-phase extraction, UPLC/MS negative ion mode
Description: Method of pretreating mammalian blood plasma sample: Collect mammal plasma containing drugs 0.5 hours after being administered the strengthening body resistance and dissipating blood stasis botanical, misce bene after adding 2-5 mol/L phosphoric acid, and the volume ratio between the blood plasma and phosphoric acid is 1:2-3, applying the blood plasma with drugs to small column of WATERS OASIS HLB (a type of chromatographic column) activated by methanol and water; after leaching with water and 80-100% methanol and eluting with 0.2-1% ammonia-methanol, drying and enriching the eluent under the condition of 25-30° C., and redissolving the eluent with mobile phase.
UPLC/MS detection method: The analysis conditions of the applied UPLC/MS method in this invention, UPLC condition: chromatographic column: ACQUITY HPLC BEH C18 (a type of chromatographic column), 2.1×100 mm, mobile phase A: Water-Acetonitrile-Formic acid 95:5:0.1 v/v/v, mobile phase B: Acetonitrile-Formic acid 100:0.1 v/v, eluting in accordance with the following gradient: […]

Row | SMILES | Detection in the blood plasma
1 | O=C(O)[C@H](O)Cc1ccc(O)c(O)c1 [Danshensu] | can be detected
2 | O=C(/C=C/c1ccc(O)c2c1[C@H](C(=O)O[C@H](Cc1ccc(O)c(O)c1)C(=O)O)[C@@H](c1ccc(O)c(O)c1)O2)O[C@H](Cc1ccc(O)c(O)c1)C(=O)O [Salvianolic acid B] | can be detected
